From patent publication US20260327243A1, “SPIRO-HETEROCYCLIC INHIBITORS OF KRAS G12C MUTANT PROTEINS AND USES THEREOF” (AMGEN INC., priority 2023, published 2026)

target: KRAS^G12C (Homo sapiens, UniProt P01116, C118A/G12C); test: Coupled Nucleotide Exchange Assay; format: biochemical; conditions: GDP-bound KRAS (aa 1-169) G12C/C118A; 2 h compound pre-incubation; SOS-mediated exchange, 30 min; cRAF binding (AlphaLISA)
Description: The KRAS^G12C coupled nucleotide exchange assay allows for the screening and profiling of KRAS^G12C antagonists/inhibitors by monitoring the binding of an effector protein (e.g., a Ras binding domain of Raf1, RBD-cRaf) to KRAS^G12C. Purified GDP-bound KRAS protein (aa 1-169), containing both G12C and C118A amino acid substitutions and an N-terminal His-tag, was pre-incubated in assay buffer (25 mM HEPES pH 7.4, 10 mM MgCl2, 0.01% Triton X-100, either with or without 0.1% BSA) with serially diluted compound for 2 h. For all subsequent steps, BSA was omitted and DTT was added to the reaction buffer at a final concentration of 1 mM. Following compound pre-incubation, purified SOS protein (aa 564-1049) and GTP (Roche 10106399001) were added to the assay wells and incubated for an additional 30 min. To determine the extent of inhibition of SOS-mediated nucleotide exchange, purified GST-tagged cRAF (aa 1-149), nickel chelate AlphaLISA acceptor beads (PerkinElmer AL108R), and AlphaScreen glutathione donor beads (PerkinElmer 6765302) were added to the assay wells and incubated for 5-30 min. The assay plates were then read on a plate reader measuring luminescence signal. Signal intensity of compound-containing wells were normalized to DMSO control, and data were analyzed using a 4-parameter logistic model to calculate IC50 values.

Sequence of KRAS^G12C (P01116 1-169 isoform P01116-2 G12C/C118A): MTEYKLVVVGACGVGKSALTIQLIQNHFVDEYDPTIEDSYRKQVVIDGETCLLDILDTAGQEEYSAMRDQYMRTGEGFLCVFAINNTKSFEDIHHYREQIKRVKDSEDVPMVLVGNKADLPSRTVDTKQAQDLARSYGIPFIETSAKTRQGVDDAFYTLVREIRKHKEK

IC50 [µM] | Compound
4.3 | C=CC(=O)N1CCN([C@@H]2CN(c3cc(N4CCC5(C=CCC5)CC4)nc(C(F)(F)F)n3)[C@@H]2C)CC1 [Compound 3-073, 1-(4-((2R,3R)-1-(6-(8-Azaspiro[4.5]dec-1-en-8-yl)-2-(trifluoromethyl)pyrimidin-4-yl)-2-methylazetidin-3-yl)piperazin-1-yl) prop-2-en-1-one]
0.883 | C=CC(=O)N1CCN([C@@H]2CN(c3cc(N4CC[C@@]5(CC4C)OCCc4ncsc45)nc(C(F)(F)F)n3)[C@@H]2C)CC1 (single isomer, unassigned) [Compound 3-091-2]
1.28 | C=CC(=O)N1CCN(C2CN(c3cc(N4CCC5(C=C[C@@H](C)O5)CC4)nc(C(F)(F)F)c3C#N)C2)CC1 [Compound 3-068-1, (R)-4-(3-(4-acryloylpiperazin-1-yl)azetidin-1-yl)-6-(2-methyl-1-oxa-8-azaspiro[4.5]dec-3-en-8-yl)-2-(trifluoromethyl)nicotinonitrile]
> 6.25 | C=CC(=O)N1CCN(C2CN(c3cc(N4CCC5(CC4)OCc4cc(Cl)ccc45)nc(C(F)(F)F)c3C#N)C2)CC1 [Compound 3-041, 4-(3-(4-acryloylpiperazin-1-yl)azetidin-1-yl)-6-(5-chloro-3H-spiro[isobenzofuran-1,4′-piperidin]-1′-yl)-2-(trifluoromethyl)nicotinonitrile]
0.825 | C=CC(=O)N1CCN([C@@H]2CN(c3cc(N4CCC5(CC4)OCC=C5C)nc(C(F)F)n3)[C@@H]2C)CC1 [Compound 3-050, 1-(4-((2R,3R)-1-(2-(Difluoromethyl)-6-(4-methyl1-oxa-8-azaspiro[4.5]dec3-en-8-yl)pyrimidin-4-yl)-2-methylazetidin-3-yl)piperazin-1-yl)prop2-en-1-one]
0.83 | C=CC(=O)N1CCN(C2CN(c3cc(N4CCC5(CC4)OCCc4ncsc45)nc(C(F)F)c3C)C2)CC1 [Compound 3-069, 1-(4-(1-(2-(Difluoromethyl)-6-(6′,7′-dihydrospiro[piperidine-4,4′-pyrano[4,3-d]thiazol]-1-yl)-3-methylpyridin-4-yl)azetidin-3-yl)piperazin-1-yl) prop-2-en-1-one]
2.99 | C=CC(=O)N1CCN(C2CN(c3cc(N4C5CCC4CC4(CCCO4)C5)nc(C(F)F)c3C)C2)CC1 (stereo not drawn) [Compound 3-071, 1-(4-(1-(2-(difluoromethyl)-6-(dihydro-3′H-8-azaspiro[bicyclo[3.2.1]octane-3,2′-furan]-8-yl)-3-methylpyridin-4-yl)azetidin-3-yl)piperazin-1-yl)prop-2-en-1-one]
0.867 | C=CC(=O)N1CCN(C2CN(c3cc(N4CCC5(CC4)O[C@@H](C)C=C5Cl)nc(C(F)(F)F)c3C#N)C2)CC1 (single isomer, unassigned) [Compound 3-067-2]
6.2 | C=CC(=O)N1CCN(C2CN(c3cc(N4CCC5(CCCO5)[C@@H](CO)C4)nc(C(F)(F)F)c3C#N)C2)CC1 (stereo partly drawn) [Compound 3-062-2, 4-(3-(4-acryloylpiperazin-1-yl)azetidin-1-yl)-6-((6R)-6-(hydroxymethyl)-1-oxa-8-azaspiro[4.5]decan-8-yl)-2-(trifluoromethyl)nicotinonitrile]
4.66 | C=CC(=O)N1CCN(C2CN(c3cc(N4CCC5(CCCO5)[C@H](CO)C4)nc(C(F)(F)F)c3C#N)C2)CC1 (single isomer, unassigned) [Compound 3-062-1]

Continued, compound first:

Compound | IC50 [µM]
C=CC(=O)N1CCN(C2CN(c3cc(N4CCC5(CC4)COCCO5)nc(C(F)(F)F)c3C#N)C2)CC1 [Compound 3-024, 4-(3-(4-acryloylpiperazin-1-yl)azetidin-1-yl)-6-(1,4-dioxa-9-azaspiro[5.5]undecan-9-yl)-2-(trifluoromethyl)nicotinonitrile] | 6.1
C=CC(=O)N1CCN([C@@H]2CN(c3cc(N4CCC5(C=CCOC5)CC4)nc(C(F)(F)F)n3)[C@@H]2C)CC1 [Compound 3-021, 1-(4-((2R,3R)-1-(6-(2-Oxa-9-azaspiro[5.5]undec-4-en-9-yl)-2-(trifluoromethyl)pyrimidin-4-yl)-2-methylazetidin-3-yl)piperazin-1-yl) prop-2-en-1-one] | 3.86
C=CC(=O)N1CCN(C2CN(c3cc(N4CCC5(CCCCO5)CC4)nc(C(F)(F)F)c3C#N)C2)CC1 [Compound 3-035, 4-(3-(4-acryloylpiperazin-1-yl)azetidin-1-yl)-6-(1-oxa-9-azaspiro[5.5]undecan-9-yl)-2-(trifluoromethyl)nicotinonitrile] | 3.58
C=CC(=O)N1CCN(C2CN(c3cc(N4CCC5(CC4)OC(=O)NC54CCC4)nc(C(F)(F)F)c3C#N)C2)CC1 [Compound 3-034, 4-(3-(4-acryloylpiperazin-1-yl)azetidin-1-yl)-6-(12-oxo-11-oxa-8,13-diazadispiro[3.0.55.34]tridecan-8-yl)-2-(trifluoromethyl)nicotinonitrile] | 2.45
C=CC(=O)N1CCN(C2CN(c3cc(N4CCC5(CC4)COC5)nc(C(F)(F)F)c3C#N)C2)CC1 [Compound 3-019, 4-(3-(4-acryloylpiperazin-1-yl)-azetidin-1-yl)-6-(2-oxa-7-azaspiro [3.5]nonan-7-yl)-2-(trifluorometh-yl)nicotinonitrile] | 4.4
C=CC(=O)N1CCN([C@@H]2CN(c3cc(N4CCC5(C=CCO5)CC4)nc(C(F)(F)F)c3C#N)[C@@H]2C)CC1 [Compound 3-010, 4-((2R,3R)-3-(4-acryloylpiperazin-1-yl)-2-methylazetidin-1-yl)-6-(1-oxa-8-azaspiro[4.5]dec-3-en-8-yl)-2-(trifluoromethyl)nicotinonitrile] | 0.66
C=CC(=O)N1CCN([C@@H]2CN(c3cc(N4CCC5(CC4)CC5CN4CCCC4)nc(C(F)(F)F)n3)[C@@H]2C)CC1 (stereo partly drawn) [Compound 3-023, 1-(4-((2R,3R)-2-methyl-1-(6-(1-(pyrrolidin-1-ylmethyl)-6-azaspiro[2.5]octan-6-yl)-2-(trifluoromethyl)pyrimidin-4-yl)azetidin-3-yl)piperazin-1-yl)prop-2-en-1-one] | 7.27
C=CC(=O)N1CCN(C2CN(c3cc(N4CCC5(CC4)CC5(F)F)nc(C(F)(F)F)c3C#N)C2)CC1 [Compound 3-036, 4-(3-(4-acryloylpiperazin-1-yl)azetidin-1-yl)-6-(1,1-difluoro-6-azaspiro[2.5]octan-6-yl)-2-(trifluoromethyl)nicotinonitrile] | 6.7
C=CC(=O)N1CCN(C2CN(c3cc(N4CCC5(CC4)CN(CC)C(=O)O5)nc(C(F)(F)F)c3C#N)C2)CC1 [Compound 3-033, 4-(3-(4-acryloylpiperazin-1-yl)azetidin-1-yl)-6-(3-ethyl-2-oxo-1-oxa-3,8-diazaspiro[4.5]decan-8-yl)-2-(trifluoromethyl)nicotinonitrile] | 6.19
C=CC(=O)N1CCN(C2CN(c3cc(N4CCC5(CC4)OC(C)(C)c4ccccc45)nc(C(F)(F)F)c3C#N)C2)CC1 [Compound 3-040, 4-(3-(4-acryloylpiperazin-1-yl)azetidin-1-yl)-6-(3,3-dimethyl-3H-spiro[isobenzofuran-1,4′-piperidin]-1′-yl)-2-(trifluoromethyl)nicotinonitrile] | 2.84
C=CC(=O)N1CCN([C@@H]2CN(c3cc(N4CCC5(C[C@@H]4C)OCC=C5C)nc(C(F)F)n3)[C@@H]2C)CC1 (stereo partly drawn) [Compound 3-007, 1-(4-((2R,3R)-1-(2-(difluorometh-yl)-6-(4.7-dimethyl-1-oxa-8-aza-spiro[4.5]dec-3-en-8-yl)pyrimidin-4-yl)-2-methyl-azetidin-3-yl)piper-azin-1-yl)-prop-2-en-1-one] | 6.57
